Experiments:
Test in all cases: relative viability (nuclei count vs DMSO), 5 days (fraction); higher = more cells survive
NCI-H1975 = test system: NCI-H1975
How it was run: (§1)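 Nuclei were stained with Hoechst during a one-step fixation (final 0.05% Triton X-100, 1% formaldehyde, 1 ug/ml Hoechst) carried out 5 days after dosing, then counted on 4× images. The cells, lung cancer lines in 1536-well plates, had been dosed by pin tool the day after seeding with one drug alone or a fixed anchor-drug dose plus five library-drug doses (not always all listed) in √10 steps. Relative viability is the nuclei count in treated wells divided by that in vehicle wells, and each value is the median of duplicate plates.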

NCI-H1944 = test system: NCI-H1944
How it was run: as §1

NCI-H650 = test system: NCI-H650
How it was run: as §1

NCI-H2087 = test system: NCI-H2087
How it was run: as §1

HCC-78 = test system: HCC-78
How it was run: as §1

NCI-H838 = test system: NCI-H838
How it was run: as §1

SK-MES-1 = test system: SK-MES-1
How it was run: as §1

LC-2-ad = test system: LC-2-ad
How it was run: as §1

PC-3 [JPC-3] = test system: PC-3 [JPC-3]
How it was run: as §1

NCI-H1651 = test system: NCI-H1651
How it was run: as §1

BEN = test system: BEN
How it was run: as §1

LXF-289 = test system: LXF-289
How it was run: as §1

LCLC-97TM1 = test system: LCLC-97TM1
How it was run: as §1

NCI-H661 = test system: NCI-H661
How it was run: as §1

NCI-H1666 = test system: NCI-H1666
How it was run: as §1

NCI-H358 = test system: NCI-H358
How it was run: as §1

NCI-H596 = test system: NCI-H596
How it was run: as §1

LK-2 = test system: LK-2
How it was run: as §1

NCI-H1355 = test system: NCI-H1355
How it was run: as §1

LU99A = test system: LU99A
How it was run: as §1

With `Nc1ccn([C@@H]2O[C@H](CO)[C@@H](O)[C@@H]2O)c(=O)n1` [Cytarabine] + C[C@]1(O)C[C@@H](c2nc(-c3ccc4ccc(-c5ccccc5)nc4c3)c3c(N)nccn32)C1 [Linsitinib] (partner 1 µM) the relative viability (NCI-H1975; first compound 0.005 µM) was 0.97, the relative viability (NCI-H1975; first compound 0.01581 µM) was 1.08 and the relative viability (NCI-H1975; first compound 0.05 µM) was 0.973. It also gave a relative viability (NCI-H1975; first compound 0.1581 µM) of 0.764, a relative viability (NCI-H1975; first compound 0.5 µM) of 0.356 and a relative viability (NCI-H1944; first compound 0.005 µM) of 1.1. The relative viability (NCI-H1944; first compound 0.01581 µM) was 0.492, the relative viability (NCI-H1944; first compound 0.05 µM) was 0.424 and the relative viability (NCI-H1944; first compound 0.1581 µM) was 0.216. The relative viability (NCI-H1944; first compound 0.5 µM) was 0.195, the relative viability (NCI-H650; first compound 0.005 µM) was 0.763 and the relative viability (NCI-H650; first compound 0.01581 µM) was 0.475. It also gave a relative viability (NCI-H650; first compound 0.05 µM) of 0.379, a relative viability (NCI-H650; first compound 0.1581 µM) of 0.209 and a relative viability (NCI-H650; first compound 0.5 µM) of 0.234. It also gave a relative viability (NCI-H2087; first compound 0.005 µM) of 0.958, a relative viability (NCI-H2087; first compound 0.01581 µM) of 1.07 and a relative viability (NCI-H2087; first compound 0.05 µM) of 0.827. It also gave a relative viability (NCI-H2087; first compound 0.1581 µM) of 0.752, a relative viability (NCI-H2087; first compound 0.5 µM) of 0.623 and a relative viability (HCC-78; first compound 0.005 µM) of 0.538. It also gave a relative viability (HCC-78; first compound 0.01581 µM) of 0.457, a relative viability (HCC-78; first compound 0.05 µM) of 0.432 and a relative viability (HCC-78; first compound 0.1581 µM) of 0.275. For the same compound, the relative viability (HCC-78; first compound 0.5 µM) was 0.132, the relative viability (NCI-H838; first compound 0.005 µM) was 1.07 and the relative viability (NCI-H838; first compound 0.01581 µM) was 1.01. It also gave a relative viability (NCI-H838; first compound 0.05 µM) of 0.875, a relative viability (NCI-H838; first compound 0.1581 µM) of 0.418 and a relative viability (NCI-H838; first compound 0.5 µM) of 0.295. The relative viability (SK-MES-1; first compound 0.005 µM) was 0.905, the relative viability (SK-MES-1; first compound 0.01581 µM) was 0.82 and the relative viability (SK-MES-1; first compound 0.05 µM) was 0.368. For the same compound, the relative viability (SK-MES-1; first compound 0.1581 µM) was 0.252, the relative viability (SK-MES-1; first compound 0.5 µM) was 0.255 and the relative viability (LC-2-ad; first compound 0.005 µM) was 0.851. It also gave a relative viability (LC-2-ad; first compound 0.01581 µM) of 0.79, a relative viability (LC-2-ad; first compound 0.05 µM) of 0.677 and a relative viability (LC-2-ad; first compound 0.1581 µM) of 0.442. The relative viability (LC-2-ad; first compound 0.5 µM) was 0.223, the relative viability (PC-3 [JPC-3]; first compound 0.005 µM) was 0.889 and the relative viability (PC-3 [JPC-3]; first compound 0.01581 µM) was 0.903. The relative viability (PC-3 [JPC-3]; first compound 0.05 µM) was 0.866, the relative viability (PC-3 [JPC-3]; first compound 0.1581 µM) was 0.691 and the relative viability (PC-3 [JPC-3]; first compound 0.5 µM) was 0.65. The relative viability (NCI-H1651; first compound 0.005 µM) was 0.916, the relative viability (NCI-H1651; first compound 0.01581 µM) was 0.98 and the relative viability (NCI-H1651; first compound 0.05 µM) was 1.11. It also gave a relative viability (NCI-H1651; first compound 0.1581 µM) of 0.468, a relative viability (NCI-H1651; first compound 0.5 µM) of 0.327 and a relative viability (BEN; first compound 0.005 µM) of 0.616. It also gave a relative viability (BEN; first compound 0.01581 µM) of 0.775, a relative viability (BEN; first compound 0.05 µM) of 0.557 and a relative viability (BEN; first compound 0.1581 µM) of 0.423. It also gave a relative viability (BEN; first compound 0.5 µM) of 0.307, a relative viability (LXF-289; first compound 0.005 µM) of 0.859 and a relative viability (LXF-289; first compound 0.01581 µM) of 0.945. For the same compound, the relative viability (LXF-289; first compound 0.05 µM) was 0.786, the relative viability (LXF-289; first compound 0.1581 µM) was 0.493 and the relative viability (LXF-289; first compound 0.5 µM) was 0.279. The relative viability (LCLC-97TM1; first compound 0.005 µM) was 0.167, the relative viability (LCLC-97TM1; first compound 0.01581 µM) was 0.148 and the relative viability (LCLC-97TM1; first compound 0.05 µM) was 0.111. It also gave a relative viability (LCLC-97TM1; first compound 0.1581 µM) of 0.101, a relative viability (LCLC-97TM1; first compound 0.5 µM) of 0.0967 and a relative viability (NCI-H661; first compound 0.005 µM) of 0.624. The relative viability (NCI-H661; first compound 0.01581 µM) was 0.529, the relative viability (NCI-H661; first compound 0.05 µM) was 0.445 and the relative viability (NCI-H661; first compound 0.1581 µM) was 0.286. The relative viability (NCI-H661; first compound 0.5 µM) was 0.21, the relative viability (NCI-H1666; first compound 0.005 µM) was 0.774 and the relative viability (NCI-H1666; first compound 0.01581 µM) was 0.876. For the same compound, the relative viability (NCI-H1666; first compound 0.05 µM) was 0.703, the relative viability (NCI-H1666; first compound 0.1581 µM) was 0.344 and the relative viability (NCI-H1666; first compound 0.5 µM) was 0.305. The relative viability (NCI-H358; first compound 0.005 µM) was 0.571, the relative viability (NCI-H358; first compound 0.01581 µM) was 0.628 and the relative viability (NCI-H358; first compound 0.05 µM) was 0.494. It also gave a relative viability (NCI-H358; first compound 0.1581 µM) of 0.248, a relative viability (NCI-H358; first compound 0.5 µM) of 0.16 and a relative viability (NCI-H596; first compound 0.005 µM) of 1.03. For the same compound, the relative viability (NCI-H596; first compound 0.01581 µM) was 0.857, the relative viability (NCI-H596; first compound 0.05 µM) was 0.763 and the relative viability (NCI-H596; first compound 0.1581 µM) was 0.658. The relative viability (NCI-H596; first compound 0.5 µM) was 0.628, the relative viability (LK-2; first compound 0.005 µM) was 0.494 and the relative viability (LK-2; first compound 0.01581 µM) was 0.58. The relative viability (LK-2; first compound 0.05 µM) was 0.247, the relative viability (LK-2; first compound 0.1581 µM) was 0.215 and the relative viability (LK-2; first compound 0.5 µM) was 0.162. For the same compound, the relative viability (NCI-H1355; first compound 0.005 µM) was 0.788, the relative viability (NCI-H1355; first compound 0.01581 µM) was 0.8 and the relative viability (NCI-H1355; first compound 0.05 µM) was 0.627. It also gave a relative viability (NCI-H1355; first compound 0.1581 µM) of 0.451, a relative viability (NCI-H1355; first compound 0.5 µM) of 0.32 and a relative viability (LU99A; first compound 0.005 µM) of 0.621. For the same compound, the relative viability (LU99A; first compound 0.01581 µM) was 0.577, the relative viability (LU99A; first compound 0.05 µM) was 0.561 and the relative viability (LU99A; first compound 0.1581 µM) was 0.508. It also gave a relative viability (LU99A; first compound 0.5 µM) of 0.47.
